# Measured values as given in ChEMBL document CHEMBL2203001, “Flavonoid glycosides from the leaves of Allium victorialis var. platyphyllum and their anti-neuroinflammatory effects” (Bioorg Med Chem Lett, 2012).
# Experiments:
# [1] = Cytotoxicity against mouse BV2 cells assessed as cell viability at 20 uM by MTT assay relative to LPS-treated cells; type: cell-based, BV-2; conditions: read-out: Activity
# BV-2 = assay: Antineuroinflammatory activity against mouse BV2 cells assessed as inhibition of LPS-induced nitric oxide production after 24 hrs by Griess method; type: functional, cell-based; conditions: BV-2, 24 h
SMILES,IC50 (BV-2) [µM],viability at 20 µM [1] [%]
O=c1c(O[C@@H]2O[C@H](CO)[C@@H](O)[C@H](O)[C@H]2O)c(-c2ccc(O)cc2)oc2cc(O)cc(O)c12 [ASTRAGALIN],77.4,106
O=c1c(O[C@@H]2O[C@H](CO)[C@@H](O)[C@H](O)[C@H]2O)c(-c2ccc(O[C@@H]3O[C@H](CO)[C@@H](O)[C@H](O)[C@H]3O)cc2)oc2cc(O)cc(O)c12,170,99.1
O=c1c(O[C@@H]2O[C@H](CO)[C@@H](O)[C@H](O)[C@H]2O)c(-c2ccc(O[C@@H]3O[C@H](CO)[C@@H](O)[C@H](O)[C@H]3O)c(O)c2)oc2cc(O)cc(O)c12,45.5,100
O=c1c(O[C@@H]2O[C@H](CO)[C@@H](O)[C@H](O)[C@H]2O)c(-c2ccc(O)c(O)c2)oc2cc(O)cc(O)c12 [ISOQUERCETIN],19.8,97.3
C[C@@H]1O[C@@H](OC[C@H]2O[C@@H](Oc3c(-c4ccc(O)cc4)oc4cc(O)cc(O)c4c3=O)[C@H](O)[C@@H](O)[C@@H]2O)[C@H](O)[C@H](O)[C@H]1O [NICOTIFLOROSIDE],122,104
CNC(=N)NCCC[C@H](N)C(=O)O [TILARGININE],16.3,98.2
O=c1c(O)c(-c2ccc(O)cc2)oc2cc(O[C@@H]3O[C@H](CO)[C@@H](O)[C@H](O)[C@H]3O)cc(O)c12,39.1,107
O=c1c(O[C@@H]2O[C@H](CO)[C@@H](O)[C@H](O)[C@H]2O)c(-c2ccc(O)cc2)oc2cc(O[C@@H]3O[C@H](CO)[C@@H](O)[C@H](O)[C@H]3O)cc(O)c12,28.9,106
O=c1c(O)c(-c2ccc(O[C@@H]3O[C@H](CO)[C@@H](O)[C@H](O)[C@H]3O)c(O)c2)oc2cc(O[C@@H]3O[C@H](CO)[C@@H](O)[C@H](O)[C@H]3O)cc(O)c12,51.7,105
COc1cc(/C=C/C(=O)O[C@H]2[C@H](Oc3c(-c4ccc(O[C@@H]5O[C@H](CO)[C@@H](O)[C@H](O)[C@H]5O)cc4)oc4cc(O)cc(O)c4c3=O)O[C@H](CO)[C@@H](O)[C@@H]2O)ccc1O [ALLIVICTOSIDE B],20.7,107

# The next lines start with results.
IC50 (BV-2) [µM],SMILES,viability at 20 µM [1] [%]
44,O=C(/C=C/c1ccc(O)cc1)O[C@H]1[C@H](Oc2c(-c3ccc(O[C@@H]4O[C@H](CO)[C@@H](O)[C@H](O)[C@H]4O)cc3)oc3cc(O[C@@H]4O[C@H](CO)[C@@H](O)[C@H](O)[C@H]4O)cc(O)c3c2=O)O[C@H](CO)[C@@H](O)[C@@H]1O [ALLIVICTOSIDE C],104
21.5,COc1cc(/C=C/C(=O)O[C@H]2[C@H](Oc3cc(O)c4c(=O)c(O[C@@H]5O[C@H](CO)[C@@H](O)[C@H](O)[C@H]5O)c(-c5ccc(O)cc5)oc4c3)O[C@H](CO)[C@@H](O)[C@@H]2O)ccc1O,106
43.4,COc1cc(/C=C/C(=O)O[C@H]2[C@H](Oc3c(-c4ccc(O[C@@H]5O[C@H](CO)[C@@H](O)[C@H](O)[C@H]5O)cc4)oc4cc(O[C@@H]5O[C@H](CO)[C@@H](O)[C@H](O)[C@H]5O)cc(O)c4c3=O)O[C@H](CO)[C@@H](O)[C@@H]2O)ccc1O,101
29.9,COc1cc(/C=C/C(=O)O[C@H]2[C@H](Oc3c(-c4ccc(O[C@H]5O[C@@H](CO)[C@H](O)[C@@H](O)[C@@H]5O)c(O)c4)oc4cc(O[C@@H]5O[C@H](CO)[C@@H](O)[C@H](O)[C@H]5O)cc(O)c4c3=O)O[C@H](CO)[C@@H](O)[C@@H]2O)ccc1O [ALLIVICTOSIDE H],105
47.2,O=C(/C=C/c1ccc(O)cc1)O[C@H]1[C@H](Oc2c(-c3ccc(O)cc3)oc3cc(O[C@@H]4O[C@H](CO)[C@@H](O)[C@H](O)[C@H]4O)cc(O)c3c2=O)O[C@H](CO)[C@@H](O)[C@@H]1O,105
49.5,O=C(/C=C/c1ccc(O)cc1)O[C@@H]1[C@@H](O)[C@H](Oc2c(-c3ccc(O[C@@H]4O[C@H](CO)[C@@H](O)[C@H](O)[C@H]4O)cc3)oc3cc(O[C@@H]4O[C@H](CO)[C@@H](O)[C@H](O)[C@H]4O)cc(O)c3c2=O)O[C@H](CO)[C@H]1O [ALLIVICTOSIDE E],104
48.5,O=C(/C=C\c1ccc(O)cc1)O[C@H]1[C@H](Oc2c(-c3ccc(O[C@@H]4O[C@H](CO)[C@@H](O)[C@H](O)[C@H]4O)cc3)oc3cc(O[C@@H]4O[C@H](CO)[C@@H](O)[C@H](O)[C@H]4O)cc(O)c3c2=O)O[C@H](CO)[C@@H](O)[C@@H]1O [ALLIVICTOSIDE D],100
20.4,COc1cc(/C=C/C(=O)O[C@H]2[C@H](Oc3c(-c4ccc(O)cc4)oc4cc(O[C@@H]5O[C@H](CO)[C@@H](O)[C@H](O)[C@H]5O)cc(O)c4c3=O)O[C@H](CO)[C@@H](O)[C@@H]2O)ccc1O [ALLIVICTOSIDE F],100
> 200,O=C(/C=C/c1ccc(O)cc1)O[C@H]1[C@H](Oc2c(-c3ccc(O[C@H]4O[C@@H](CO)[C@H](O)[C@@H](O)[C@@H]4O)c(O)c3)oc3cc(O)cc(O)c3c2=O)O[C@H](CO)[C@@H](O)[C@@H]1O [ALLIVICTOSIDE G],101
55.6,O=C(/C=C/c1ccc(O)cc1)O[C@H]1[C@H](Oc2c(-c3ccc(O[C@@H]4O[C@H](CO)[C@@H](O)[C@H](O)[C@H]4O)cc3)oc3cc(O)cc(O)c3c2=O)O[C@H](CO)[C@@H](O)[C@@H]1O [ALLIVICTOSIDE A],109
33,O=c1c(O[C@@H]2O[C@H](CO)[C@@H](O)[C@H](O)[C@H]2O)c(-c2ccc(O[C@@H]3O[C@H](CO)[C@@H](O)[C@H](O)[C@H]3O)cc2)oc2cc(O[C@@H]3O[C@H](CO)[C@@H](O)[C@H](O)[C@H]3O)cc(O)c12,102
